Assay results from ChEMBL document CHEMBL5335861, “Novel ACC Inhibitors for Treating Acne” (ACS Med Chem Lett, 2024).

Target: Acetyl-CoA carboxylase 1 (Homo sapiens, UniProt Q13085)
Assay: Inhibition of full length human recombinant ACC1 expressed in baculovirus infected Sf9 cells incubated for 18 hrs in presence of ATP by envision fluorescence reader analysis

IC50: 1.3 nM
SMILES: COc1cc(C(=O)N2CCC3(CC2)CC(=O)c2nc(C(C)(C)C)sc2C3)c2[nH]ccc2c1Cl
